Assays:
mPTP [1] = assay: mPTP activity (Ca2+ retention) assay in isolated rat liver mitochondria; format: biochemical; settings: examples tested by different contract research organisations, believed comparable
Procedure, shortened: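 pIC50 was taken from Fluo5N fluorescence at 10 min after a 75 μM CaCl2 bolus, scaled between DMSO (0%) and 5 μM cyclosporin A (100%). Compounds, ten half-log concentrations from 30 μM to 1 nM final, sat 10 min at RT with fresh female Sprague Dawley rat liver mitochondria energized by succinate plus rotenone.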

mPTP [2] = assay: mPTP activity assay in isolated rat brain mitochondria; format: biochemical; settings: fluorescence at 10 min timepoint
Method: MPTP activity was measured in brain mitochondria freshly isolated from female Sprague Dawley (250 to 300 gram) rats. Anaesthetised rats were perfused in-situ with −40 ml cold Dulbecco's Phosphate Buffered Saline (DPBS), then brains dissected and transferred into 30 ml Isolation Buffer (225 mM mannitol, 75 mM sucrose, 1 mM EGTA, adjusted to pH 7.4 with 1M NaOH). The brain was minced using tweezers and a scalpel into −5 mm pieces then transferred into a 50 ml Potterton Dounce homogenization tube on ice containing 10 ml ice-cold isolation buffer (as above with addition of Complete Protease inhibitor; 1 tablet per 50 ml buffer). Homogenisation was carried out using a teflon pestle at 1800 rpm. The slurry was centrifuged at 2000 g for 10 min at 4° C., then the supernatant centrifuged at 12,000 g for 9 min. The pellet was resuspended with a dounce homogeniser in isolation buffer as above but with the addition of 0.02% digitonin, centrifuged at 12,000 g for 11 min and finally resuspended in 5 ml modified isolation buffer (as above but with EGTA reduced to 0.1 mM).
Test compounds were prepared in 384 well polypropylene assay plates as described above for the liver mitochondria assay. A stock mitochondria/Fluo5N assay solution was prepared in 5.6 ml assay buffer (120 mM mannitol, 40 mM MOPS, 5 mM KH2PO4, 60 mM KCl, 10 mM pyruvate, 2 mM malate, 2 mM MgCl2, 20 μM ADP, 1.26 μM oligomycin A, adjusted to pH 7.4) supplemented with Fluo5N pentapotassium salt (2 μM) and 1 ml mitochondria suspension, then transferred (15 μl) into the assay plate containing test compounds and incubated for 10 min at RT. Assay plates were then transferred to a FLIPR Tetra plate reader (Molecular Devices). Dye fluorescence was then measured every 3 sec for a total of 10 min.

CC(CNC(=O)c1ncc(Cl)c(=O)[nH]1)(Cc1ccc(F)cc1)C1CC1 (single isomer, unassigned) [Example 264, 5-Chloro-N-[2-cyclopropyl-3-(4-fluorophenyl)-2-methylpropyl]-4-oxo-3H-pyrimidine-2-carboxamide]
mPTP Rat liver pIC50 (mPTP [1]): 6.09 | mPTP Rat brain pIC50 (mPTP [2]): 7.29

Cn1nc(C(=O)NCC2(Cc3ccccc3Br)CCC2)[nH]c1=O [Example 37, N-((1-(2-bromobenzyl)cyclobutyl)methyl)-1-methyl-5-oxo-4,5-dihydro-1H-1,2,4-triazole-3-carboxamide]
mPTP Rat liver pIC50 (mPTP [1]): 5.79 | mPTP Rat brain pIC50 (mPTP [2]): 7.61

Cn1nc(C(=O)NCC2(Cc3cccc(F)c3)CCC2)[nH]c1=O [Example 84, N-((1-(3-Fluorobenzyl)cyclobutyl)methyl)-1-methyl-5-oxo-4,5-dihydro-1H-1,2,4-triazole-3-carboxamide]
mPTP Rat liver pIC50 (mPTP [1]): 6.72 | mPTP Rat brain pIC50 (mPTP [2]): 7.72

COC(c1ccccc1)C1(CNC(=O)c2nn(C)c(=O)[nH]2)CCC1 (stereo not drawn) [Example 28, N-((1-(methoxy(phenyl)methyl)cyclobutyl)methyl)-1-methyl-5-oxo-4,5-dihydro-1H-1,2,4-triazole-3-carboxamide]
mPTP Rat liver pIC50 (mPTP [1]): 5.96 | mPTP Rat brain pIC50 (mPTP [2]): 6.73

Cn1nc(C(=O)NCC2(Cc3ccc(F)cc3F)CCCO2)[nH]c1=O (single isomer, unassigned) [Example 230]
mPTP Rat liver pIC50 (mPTP [1]): 6.18 | mPTP Rat brain pIC50 (mPTP [2]): 6.40

Cn1nc(C(=O)NCC(C)(C)Cc2ccccc2Br)[nH]c1=O [Example 36, N-(3-(2-bromophenyl)-2,2-dimethylpropyl)-1-methyl-5-oxo-4,5-dihydro-1H-1,2,4-triazole-3-carboxamide]
mPTP Rat liver pIC50 (mPTP [1]): 5.28 | mPTP Rat brain pIC50 (mPTP [2]): 7.05

O=C(NCC1(Cc2ccccn2)CCC1)c1cncc(=O)[nH]1 [Example 62, 6-oxo-N-((1-(pyridin-2-ylmethyl)cyclobutyl)methyl)-1,6-dihydropyrazine-2-carboxamide]
mPTP Rat liver pIC50 (mPTP [1]): 4.85 | mPTP Rat brain pIC50 (mPTP [2]): 5.16

CC(CNC(=O)c1cc(O)no1)(Cc1ccc(F)cc1F)C1CC1 (single isomer, unassigned) [Example 269]
mPTP Rat liver pIC50 (mPTP [1]): 6.78 | mPTP Rat brain pIC50 (mPTP [2]): 7.73

O=C(NCC1(Cc2ccc(F)cc2F)CCC1)c1noc(=O)[nH]1 [Example 205]
mPTP Rat liver pIC50 (mPTP [1]): 6.15 | mPTP Rat brain pIC50 (mPTP [2]): 7.38

CCC(CNC(=O)c1nn(C)c(=O)[nH]1)Cc1cccs1 (stereo not drawn) [Example 80, 1-Methyl-5-oxo-N-(2-(thiophen-2-ylmethyl)butyl)-4,5-dihydro-1H-1,2,4-triazole-3-carboxamide]
mPTP Rat liver pIC50 (mPTP [1]): 5.77 | mPTP Rat brain pIC50 (mPTP [2]): 6.29

CC(NC(=O)c1nn(C)c(=O)[nH]1)C1(Cc2ccccc2)CCC1 (single isomer, unassigned) [Example 24A, N-(1-(1-benzylcyclobutyl)ethyl)-1-methyl-5-oxo-4,5-dihydro-1H-1,2,4-triazole-3-carboxamide]
mPTP Rat liver pIC50 (mPTP [1]): 6.75 | mPTP Rat brain pIC50 (mPTP [2]): 7.83

Cc1cnc(C(=O)NCC(C)(Cc2ccc(F)cc2)C2CC2)[nH]c1=O (single isomer, unassigned) [Example 268]
mPTP Rat liver pIC50 (mPTP [1]): 6.04 | mPTP Rat brain pIC50 (mPTP [2]): 7.02

CC(CNC(=O)c1noc(=O)[nH]1)(Cc1ccc(F)cc1F)C1CC1 (single isomer, unassigned) [Example 274]
mPTP Rat liver pIC50 (mPTP [1]): 6.85 | mPTP Rat brain pIC50 (mPTP [2]): 8.5

O=C(NCC1(Cc2ccccc2)CCC1)c1nccc(=O)[nH]1 [Example 7, N-((1-benzylcyclobutyl)methyl)-6-oxo-1,6-dihydropyrimidine-2-carboxamide]
mPTP Rat liver pIC50 (mPTP [1]): 5.97 | mPTP Rat brain pIC50 (mPTP [2]): 7.42

O=C(NCC1(Cc2ccc(F)cc2F)CCCC1)c1cncc(=O)[nH]1 [Example 152]
mPTP Rat liver pIC50 (mPTP [1]): 6.19 | mPTP Rat brain pIC50 (mPTP [2]): 7.44

CC(CNC(=O)c1cc(O)no1)(Cc1ccc(F)cc1F)C1CC1 (single isomer, unassigned) [Example 270]
mPTP Rat liver pIC50 (mPTP [1]): 5.39 | mPTP Rat brain pIC50 (mPTP [2]): 6.51

Cn1nc(C(=O)NCC2(Cc3cc(F)c(F)cc3F)CCC2)[nH]c1=O [Example 157, 1-methyl-5-oxo-N-((1-(2,4,5-trifluorobenzyl)cyclobutyl)methyl)-4,5-dihydro-1H-1,2,4-triazole-3-carboxamide]
mPTP Rat liver pIC50 (mPTP [1]): 7.03 | mPTP Rat brain pIC50 (mPTP [2]): 7.81

Cn1nc(C(=O)NCC2(Cc3ccc(F)c(F)c3)CCC2)[nH]c1=O [Example 142, N-((1-(3,4-difluorobenzyl)cyclobutyl)methyl)-1-methyl-5-oxo-4,5-dihydro-1H-1,2,4-triazole-3-carboxamide]
mPTP Rat liver pIC50 (mPTP [1]): 7.04 | mPTP Rat brain pIC50 (mPTP [2]): 7.42

CC[C@H](CNC(=O)c1nccc(=O)[nH]1)Cc1ccc(F)cc1F [Example 191]
mPTP Rat liver pIC50 (mPTP [1]): 6.47 | mPTP Rat brain pIC50 (mPTP [2]): 7.42

Cc1cnc(C(=O)NCC2(Cc3ccccc3)CCC2)[nH]c1=O [Example 9, N-((1-benzylcyclobutyl)methyl)-5-methyl-6-oxo-1,6-dihydropyrimidine-2-carboxamide]
mPTP Rat liver pIC50 (mPTP [1]): 6.14 | mPTP Rat brain pIC50 (mPTP [2]): 7.33

O=C(NC[C@H](Cc1cc(F)ccc1F)C1CC1)c1noc(=O)[nH]1 [Example 207]
mPTP Rat liver pIC50 (mPTP [1]): 6.12 | mPTP Rat brain pIC50 (mPTP [2]): 7.65

Cc1cc(F)ccc1C[C@@H](CNC(=O)c1nn(C)c(=O)[nH]1)C1CC1 [Example 131]
mPTP Rat liver pIC50 (mPTP [1]): 7.01 | mPTP Rat brain pIC50 (mPTP [2]): 7.85

CCC(CNC(=O)c1nn(C)c(=O)[nH]1)Cc1ccccc1 (stereo not drawn) [Example 40, N-(2-benzylbutyl)-1-methyl-5-oxo-4,5-dihydro-1H-1,2,4-triazole-3-carboxamide]
mPTP Rat liver pIC50 (mPTP [1]): 6.29 | mPTP Rat brain pIC50 (mPTP [2]): 7.50

CC(NC(=O)c1nn(C)c(=O)[nH]1)C(C)(C)Cc1ccccc1 (single isomer, unassigned) [Example 39B, N-(3,3-dimethyl-4-phenylbutan-2-yl)-1-methyl-5-oxo-4,5-dihydro-1H-1,2,4-triazole-3-carboxamide]
mPTP Rat liver pIC50 (mPTP [1]): 6.56 | mPTP Rat brain pIC50 (mPTP [2]): 7.62

Cn1nc(C(=O)NCC2(Cc3c(F)cccc3F)CCC2)[nH]c1=O [Example 21, N-((1-(2,6-difluorobenzyl)cyclobutyl)methyl)-1-methyl-5-oxo-4,5-dihydro-1H-1,2,4-triazole-3-carboxamide]
mPTP Rat liver pIC50 (mPTP [1]): 6.09 | mPTP Rat brain pIC50 (mPTP [2]): 7.63

O=C(NCC1(Cc2cc(F)ccc2F)CCC1)c1nccc(=O)[nH]1 [Example 146]
mPTP Rat liver pIC50 (mPTP [1]): 6.85 | mPTP Rat brain pIC50 (mPTP [2]): 7.62

CC(CNC(=O)c1cc(O)no1)(Cc1ccc(F)cc1)C1CC1 (single isomer, unassigned) [Example 271]
mPTP Rat liver pIC50 (mPTP [1]): 6.83 | mPTP Rat brain pIC50 (mPTP [2]): 7.59

CC(C)[C@H](CNC(=O)c1nn(C)c(=O)[nH]1)Cc1ccccc1 (single isomer, unassigned) [Example 46B]
mPTP Rat liver pIC50 (mPTP [1]): 6.97 | mPTP Rat brain pIC50 (mPTP [2]): 7.68

O=C(NCC1(Cc2ccc(F)cc2F)CC12CC2)c1noc(=O)[nH]1 (single isomer, unassigned) [Example 233]
mPTP Rat liver pIC50 (mPTP [1]): 5.77 | mPTP Rat brain pIC50 (mPTP [2]): 7.10

CC(c1ccc(F)cc1F)[C@@H](CNC(=O)c1nccc(=O)[nH]1)C1CC1 (single isomer, unassigned) [Example 225]
mPTP Rat liver pIC50 (mPTP [1]): 5.47 | mPTP Rat brain pIC50 (mPTP [2]): 6.66

From US12491185B2, “Inhibitors of mPTP” (NRG Therapeutics Ltd, priority 2023, dated 2025)
